In PMC7909954 (eLife, 2021):
Like-named read-outs stand apart in the source and are kept apart here.

Legend:
rKOR [1] = biological target: T1, rKOR (Rattus norvegicus, UniProt P34975); test: cell-based; conditions: HEK-293T, read-out: Emax% G protein activation (BRET) rKOR
MOR [2] = biological target: T2, MOR (Homo sapiens, UniProt P35372); test: cell-based
DOR [3] = biological target: T3, DOR (Homo sapiens, UniProt P41143); test: cell-based
Y312W-hKOR [4] = biological target: T4, Y312W-hKOR (Homo sapiens, UniProt P41145, Y312W); test: cell-based
T4 sequence (P41145 whole entry Y312W): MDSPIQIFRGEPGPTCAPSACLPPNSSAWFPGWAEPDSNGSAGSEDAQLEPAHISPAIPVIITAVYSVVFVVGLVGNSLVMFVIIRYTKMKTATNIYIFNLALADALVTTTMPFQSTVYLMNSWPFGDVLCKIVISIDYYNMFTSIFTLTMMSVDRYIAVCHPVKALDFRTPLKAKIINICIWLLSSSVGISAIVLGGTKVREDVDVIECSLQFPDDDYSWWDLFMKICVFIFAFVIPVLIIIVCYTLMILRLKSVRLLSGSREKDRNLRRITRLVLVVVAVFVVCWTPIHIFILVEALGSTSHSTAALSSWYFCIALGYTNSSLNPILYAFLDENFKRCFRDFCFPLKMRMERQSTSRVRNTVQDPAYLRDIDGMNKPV

Y312W-hKOR [5] = biological target: T4, Y312W-hKOR
KOR [6] = biological target: T5, KOR (Homo sapiens, UniProt P41145); test: cell-based
T5 sequence (P41145 whole entry): as the sequence (P41145 whole entry Y312W) above, with W312Y counted along it

rKOR [7] = biological target: T1, rKOR
MOR [8] = biological target: T2, MOR
DOR [9] = biological target: T3, DOR; test: cell-based; remark: listed apart in the source
mKOR [10] = biological target: T6, mKOR (Mus musculus, UniProt P33534); test: biochemical
T6 sequence (P33534 whole entry): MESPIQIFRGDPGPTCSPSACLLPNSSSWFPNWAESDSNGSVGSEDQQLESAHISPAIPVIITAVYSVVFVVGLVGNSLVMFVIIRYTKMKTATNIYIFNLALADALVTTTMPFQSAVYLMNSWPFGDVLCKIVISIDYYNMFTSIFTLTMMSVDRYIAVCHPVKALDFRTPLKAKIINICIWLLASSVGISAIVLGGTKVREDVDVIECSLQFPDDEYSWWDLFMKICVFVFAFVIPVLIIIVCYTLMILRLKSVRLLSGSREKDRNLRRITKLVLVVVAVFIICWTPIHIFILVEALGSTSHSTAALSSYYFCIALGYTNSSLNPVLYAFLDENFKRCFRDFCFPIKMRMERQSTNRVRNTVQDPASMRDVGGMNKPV

rKOR [11] = biological target: T1, rKOR; test: cell-based; conditions: HEK-293T, read-out: Emax% arrestin recruitment (BRET) rKOR
Y312W-hKOR [12] = biological target: T4, Y312W-hKOR; test: cell-based; conditions: read-out: Emax% cAMP inhibition Y312W-hKOR
mMOR [13] = biological target: T7, mMOR (Mus musculus, UniProt P42866); test: biochemical
T7 sequence (P42866 whole entry): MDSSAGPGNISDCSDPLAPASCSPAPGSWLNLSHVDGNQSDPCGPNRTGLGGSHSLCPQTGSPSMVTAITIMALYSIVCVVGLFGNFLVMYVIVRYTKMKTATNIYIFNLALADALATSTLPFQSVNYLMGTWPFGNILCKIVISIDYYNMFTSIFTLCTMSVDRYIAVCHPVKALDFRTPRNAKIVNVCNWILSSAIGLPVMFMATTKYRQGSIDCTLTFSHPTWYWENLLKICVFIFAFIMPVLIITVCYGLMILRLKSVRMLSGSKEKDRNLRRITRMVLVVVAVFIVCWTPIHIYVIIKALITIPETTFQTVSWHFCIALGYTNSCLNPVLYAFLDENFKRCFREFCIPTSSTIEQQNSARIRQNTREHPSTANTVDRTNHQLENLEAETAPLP

KOR [14] = biological target: T5, KOR
MOR [15] = biological target: T2, MOR; test: cell-based; remark: listed apart in the source
mMOR [16] = biological target: T7, mMOR
mKOR [17] = biological target: T6, mKOR; test: biochemical; remark: listed apart in the source
mDOR [18] = biological target: T8, mDOR (Mus musculus, UniProt P32300); test: cell-based
T8 sequence (P32300 whole entry): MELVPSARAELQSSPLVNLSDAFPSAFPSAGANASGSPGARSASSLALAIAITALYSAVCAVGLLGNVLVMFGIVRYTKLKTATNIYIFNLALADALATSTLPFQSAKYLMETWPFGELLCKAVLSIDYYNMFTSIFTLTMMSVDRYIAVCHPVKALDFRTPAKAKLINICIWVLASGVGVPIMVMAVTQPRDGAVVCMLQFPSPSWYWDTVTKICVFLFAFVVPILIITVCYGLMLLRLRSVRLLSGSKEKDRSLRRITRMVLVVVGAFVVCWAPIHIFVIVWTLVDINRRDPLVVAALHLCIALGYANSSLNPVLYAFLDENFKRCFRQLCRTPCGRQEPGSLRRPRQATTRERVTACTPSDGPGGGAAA

mMOR [19] = biological target: T7, mMOR; test: biochemical; remark: listed apart in the source
KOR [20] = biological target: T5, KOR; test: cell-based; remark: listed apart in the source
mMOR [21] = biological target: T7, mMOR; test: cell-based
mDOR [22] = biological target: T8, mDOR; test: cell-based; remark: listed apart in the source
mDOR [23] = biological target: T8, mDOR; test: biochemical; conditions: read-out: Emax mDOR [35S]GTPγS
mMOR [24] = biological target: T7, mMOR; test: cell-based; design: expressed in transfected cells; host or cells: HEK-293T
[25] = transduction coefficient log(T/KA)

T2 sequence (P35372 whole entry): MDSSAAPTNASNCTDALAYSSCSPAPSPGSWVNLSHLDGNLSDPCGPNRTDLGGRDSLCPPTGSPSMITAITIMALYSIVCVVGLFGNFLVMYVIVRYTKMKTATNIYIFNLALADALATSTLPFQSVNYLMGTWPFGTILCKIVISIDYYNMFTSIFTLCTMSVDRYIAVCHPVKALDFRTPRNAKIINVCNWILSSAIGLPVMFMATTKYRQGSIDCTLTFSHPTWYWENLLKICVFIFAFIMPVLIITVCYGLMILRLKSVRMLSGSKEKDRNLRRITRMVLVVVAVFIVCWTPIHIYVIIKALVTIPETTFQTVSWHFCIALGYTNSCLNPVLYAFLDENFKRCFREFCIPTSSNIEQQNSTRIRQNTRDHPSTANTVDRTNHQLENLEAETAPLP
T1 sequence (P34975 whole entry): as the sequence (P33534 whole entry) above, with D11E, S17A, S51P, A308V counted along it
T3 sequence (P41143 whole entry): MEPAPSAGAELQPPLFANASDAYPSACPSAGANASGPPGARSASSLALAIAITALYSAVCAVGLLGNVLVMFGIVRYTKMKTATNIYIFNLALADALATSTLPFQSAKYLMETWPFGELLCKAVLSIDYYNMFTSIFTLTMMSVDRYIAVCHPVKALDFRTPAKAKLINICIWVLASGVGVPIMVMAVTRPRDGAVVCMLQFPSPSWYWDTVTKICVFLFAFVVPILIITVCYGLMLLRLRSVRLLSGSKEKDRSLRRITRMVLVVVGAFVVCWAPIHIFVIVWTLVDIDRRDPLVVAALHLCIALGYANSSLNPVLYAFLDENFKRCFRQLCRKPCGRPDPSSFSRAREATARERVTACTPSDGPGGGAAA

## O=C(N[C@@H]1CCC2C3Cc4ccc(O)c5c4[C@@]2(CCN3CC2CC2)C1O5)c1cccc(I)c1 (stereo partly drawn) [MP1202, N-((7R,12bS)−3-(Cyclopropylmethyl)−9-hydroxy-2,3,4,4a,5,6,7,7a-octahydro-1H-4,12-methanobenzofuro[3,2-e]isoquinolin-7-yl)−3-iodobenzamide]
rKOR [1]
  Emax: 104 ± 2%
MOR [2]
  EC50: 26.8 nM
MOR [2]; HTLA, read-out: Emax% arrestin recruitment (Tango) hMOR
  Emax: 53 ± 2%
DOR [3]; EC50 cAMP inhibition hDOR
  EC50: 8.18 nM
DOR [3]; HEK-293T, read-out: Emax% cAMP inhibition hDOR
  Emax: 99 ± 2.2%
Y312W-hKOR [4]
  EC50: 3.4 nM
Y312W-hKOR [4]; read-out: Emax% arrestin recruitment (Tango) Y312W-hKOR
  Emax: 55 ± 2.6%
Y312W-hKOR [5]
  Log RA cAMP Y312W-hKOR: 10.63±0.005
  LogRA Tango Y312W-hKOR: 8.091±0.051
  ΔΔlog RA (cAMP-Tango) Y312W-hKOR: 1.53±0.073
Y312W-hKOR [5]; vs U50,488h
  Bias factor (cAMP-Tango) Y312W-hKOR: 34
  ΔlogRA Tango Y312W-hKOR: 0.532±0.073
  ΔlogRA cAMP Y312W-hKOR: 2.062±0.007
KOR [6]; EC50 arrestin recruitment (Tango) hKOR
  EC50: 0.0457 nM
KOR [6]; HTLA, read-out: Emax% arrestin recruitment (Tango) hKOR
  Emax: 101 ± 1%
rKOR [7]
  Log RA BRET-G rKOR: 9.906±0.088
  LogRA BRET-Arr rKOR: 8.791±0.171
  ΔΔlog RA (BRETG-BRETArr) rKOR: -0.399±0.27
rKOR [7]; vs U50,488h
  ΔlogRA BRET-G rKOR: 1.594±0.117
  ΔlogRA BRET-arr rKOR: 1.993±0.239
MOR [8]
  Bias factor (cAMP-Tango) hMOR: 31
  Log RA cAMP hMOR: 9.99±0.012
  LogRA Tango hMOR: 7.24±0.002
  ΔlogRA Tango hMOR: 0.058±0.002
  ΔlogRA cAMP hMOR: 1.55±0.016
  ΔΔlog RA (cAMP-Tango) hMOR: 1.49±0.016
DOR [9]; EC50 arrestin recruitment hDOR, Tango
  EC50: 18.1 nM
DOR [9]; HTLA, read-out: Emax% arrestin recruitment hDOR
  Emax: 26 ± 3.1%
mKOR [10]; EC50 mKOR [35S]GTPγS, ± SEM
  EC50: 0.13 ± 0.02 nM
mKOR [10]; read-out: Emax mKOR [35S]GTPγS
  Emax: 94 ± 5%
rKOR [11]
  Emax: 77 ± 5%
Y312W-hKOR [12]
  Emax: 101 ± 1.5%
mMOR [13]
  Ki: 0.071 ± 0.031 nM
KOR [14]
  ΔΔlog RA (cAMP-Tango) hKOR: -0.19±0.072
KOR [14]; [25]
  Log RA cAMP hKOR: 11.88±0.050
  LogRA Tango hKOR: 10.30±0.004
KOR [14]; vs U50,488h
  ΔlogRA Tango hKOR: 1.856±0.006
  ΔlogRA cAMP hKOR: 1.66±0.072
MOR [15]; EC50 cAMP inhibition hMOR
  EC50: 0.077 nM
MOR [15]; HEK-293T, read-out: Emax% cAMP inhibition hMOR
  Emax: 92 ± 1.4%
mMOR [16]
  Emax% G protein activation (BRET) mMOR: 61±1.5%
mKOR [17]
  Ki: 0.11 ± 0.064 nM
mDOR [18]; EC50 G protein activation (BRET) mDOR
  EC50: 7.03 nM
mDOR [18]; HEK-293T, read-out: Emax% G protein activation (BRET) mDOR
  Emax: 103 ± 4.6%
mDOR [18]; pEC50 G protein activation (BRET) mDOR, ± SEM
  EC50: 7.94 nM
mMOR [19]; EC50 mMOR [35S]GTPγS, ± SEM
  EC50: 0.32 ± 0.03 nM
mMOR [19]; read-out: Emax mMOR [35S]GTPγS
  Emax: 68 ± 1%
KOR [20]; EC50 cAMP inhibition hKOR
  EC50: 0.00139 nM
KOR [20]; HEK-293T, read-out: Emax% cAMP inhibition hKOR
  Emax: 97.9 ± 2.5%
mMOR [21]; EC50 G protein activation (BRET) mMOR
  EC50: 0.63 nM
mMOR [21]; HEK-293T, read-out: Emax% G protein activation (BRET) mMOR
  Emax: 70%
mDOR [22]; EC50 arrestin recruitment (BRET) mDOR
  EC50: 525 nM
mDOR [22]; HEK-293T, read-out: Emax% arrestin recruitment (BRET) mDOR
  Emax: 26 ± 2.3%
mDOR [23]
  Emax: 71 ± 2%
mMOR [24]
  EC50: 3140 nM
  Emax% arrestin recruitment (BRET) mMOR: 53 ± 1.6%
mMOR [24]; HEK-293T, read-out: Emax% arrestin recruitment (BRET) mMOR
  Emax: 57%
